molecular target: human DGKζ (Homo sapiens (Human), UniProt Q13574); experiment: Human DGKζ kinase activity inhibition assay (ADP-Glo); assay type: biochemical; settings: in vitro human DGKζ kinase activity inhibition assay; read-out: IC50
Method: Human DGKζ Kinase Activity Inhibition Assay. Human diacylglycerol kinase zeta (DGKζ) inhibitory activity of compounds of the present invention was quantified employing the human DGKζ kinase activity assay as described in the following paragraphs. In essence, the enzyme activity was measured by quantification of the adenosine-di-phosphate (ADP) generated as a co-product of the enzyme reaction via the “ADP-Glo™ Kinase Assay” kit from the company Promega. This detection system works as follows: In a first step the adenosine-tri-phosphate (ATP) not consumed in the kinase reaction is quantitatively converted to cyclic adenosine-mono-phosphate (cAMP) employing an adenylate cyclase (“ADP-Glo-reagent”), then the adenylate cyclase is stopped and the ADP generated in the kinase reaction is converted to ATP, which subsequently generates in a luciferase-based reaction a glow-luminescence signal (“Kinase Detection Reagent”). C-terminally FLAG-tagged, recombinant full-length human DGKζ (in house expressed in baculovirus infected insect cells, purified using anti-Flag pulldown and size exclusion chromatography) was used as enzyme. As an alternative, commercially available enzyme by Carnabio can be used. […] Subsequently, 22.55 volumes of a 510 mM solution of octyl-β-D-glucopyranoside (Sigma-Aldrich, Cat. #O8001-10G) in 50 mM MOPS buffer (pH 7.4) were added, and the mixture was sonicated in an ultrasonic bath for 20 s. […] Viewlux™ from Perkin-Elmer). The amount of emitted light was taken as a measure for the amount of ADP generated and thereby for the activity of the DGKζ.

Chain of human DGKζ (Q13574 other isoform, or with tags, fused parts or gaps): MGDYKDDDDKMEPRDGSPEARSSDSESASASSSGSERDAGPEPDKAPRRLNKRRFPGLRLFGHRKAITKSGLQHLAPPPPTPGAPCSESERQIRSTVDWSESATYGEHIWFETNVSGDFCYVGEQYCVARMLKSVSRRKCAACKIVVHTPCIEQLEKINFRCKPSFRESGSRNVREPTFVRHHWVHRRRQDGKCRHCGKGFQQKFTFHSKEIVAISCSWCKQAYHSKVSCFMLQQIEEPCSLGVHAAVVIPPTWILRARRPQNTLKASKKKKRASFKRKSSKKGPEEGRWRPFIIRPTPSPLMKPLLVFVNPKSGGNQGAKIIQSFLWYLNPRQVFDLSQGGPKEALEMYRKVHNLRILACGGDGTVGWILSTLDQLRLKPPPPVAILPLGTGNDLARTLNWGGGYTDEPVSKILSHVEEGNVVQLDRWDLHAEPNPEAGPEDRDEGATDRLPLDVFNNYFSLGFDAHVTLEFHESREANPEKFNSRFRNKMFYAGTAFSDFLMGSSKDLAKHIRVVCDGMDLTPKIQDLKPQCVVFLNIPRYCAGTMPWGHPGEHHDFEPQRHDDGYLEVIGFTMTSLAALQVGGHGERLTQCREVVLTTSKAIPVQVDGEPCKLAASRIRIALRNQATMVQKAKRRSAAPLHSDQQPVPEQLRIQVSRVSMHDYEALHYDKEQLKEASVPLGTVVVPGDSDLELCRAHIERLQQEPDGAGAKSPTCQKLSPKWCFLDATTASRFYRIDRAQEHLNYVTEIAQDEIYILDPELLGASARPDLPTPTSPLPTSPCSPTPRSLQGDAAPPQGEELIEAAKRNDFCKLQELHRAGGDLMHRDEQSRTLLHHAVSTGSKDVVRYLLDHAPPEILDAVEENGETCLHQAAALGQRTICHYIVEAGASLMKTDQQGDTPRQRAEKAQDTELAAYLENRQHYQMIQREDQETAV

Structure (SMILES)	IC50 [nM]
CC(C(N)=O)N(c1ccc(OC(F)(F)F)c(Cl)c1)c1nc(N)c(C(=O)c2ccc(OC(F)F)nc2)s1 (racemic) [Example 226, rac-2-[N-[4-amino-5-[6-(difluoromethoxy)pyridine-3-carbonyl]thiazol-2-yl]-3-chloro-4-(trifluoromethoxy)anilino]propanamide]	87
CC(C(N)=O)N(c1ccc(OC(F)F)c(F)c1)c1nc(N)c(C(=O)c2ccc(OC(F)F)nc2)s1 (racemic) [Example 210, rac-2-[N-[4-amino-5-[6-(difluoromethoxy)pyridine-3-carbonyl]thiazol-2-yl]-4-(difluoromethoxy)-3-fluoro-anilino]propanamide]	69
CC(C(N)=O)N(c1ccc(F)cc1)c1nc(N)c(C(=O)c2ccc(OCC(=O)N3CCc4ccccc4C3)cc2)s1 (racemic) [Example 133, rac-2-(N-[4-amino-5-[4-[2-(3,4-dihydro-1H-isoquinolin-2-yl)-2-oxo-ethoxy]benzoyl]thiazol-2-yl]-4-fluoro-anilino)propanamide]	42.5
CC(C(N)=O)N(c1ccccc1)c1nc(N)c(C(=O)c2ccccc2)s1 (racemic) [Example 60, rac-2-(N-(4-amino-5-benzoyl-thiazol-2-yl)anilino)propanamide]	403
CCC(C(N)=O)N(c1ccccc1)c1nc(N)c(C(=O)c2ccccc2)s1 (racemic) [Example 67, rac-2-[(4-amino-5-benzoyl-1,3-thiazol-2-yl)(phenyl)amino]butanamide]	2270
COc1ccc(C(=O)c2sc(N(c3ccc(OC(F)(F)F)c(F)c3)C(C)C(N)=O)nc2N)cc1 (racemic) [Example 217, rac-2-[N-[4-amino-5-(4-methoxybenzoyl)thiazol-2-yl]-3-fluoro-4-(trifluoromethoxy)anilino]propanamide]	41
CC(C(N)=O)N(c1ccc(OC(F)F)c(Cl)c1)c1nc(N)c(C(=O)c2ccc(Cl)cc2)s1 (racemic) [Example 202, rac-2-[N-[4-amino-5-(4-chlorobenzoyl)thiazol-2-yl]-3-chloro-4-(difluoromethoxy)anilino]propanamide]	69
CC(C(N)=O)N(c1ccc(OC(F)F)nc1)c1nc(N)c(C(=O)c2ccccc2)s1 (racemic) [Example 229, rac-2-[(4-amino-5-benzoyl-thiazol-2-yl)-[6-(difluoromethoxy)-3-pyridyl]amino]propanamide]	193
CC(C(N)=O)N(c1cccc(F)c1)c1nc(N)c(C(=O)c2ccccc2)s1 (racemic) [Example 74, rac-2-(N-(4-amino-5-benzoyl-thiazol-2-yl)-3-fluoro-anilino)propanamide]	190
CC(C(N)=O)N(c1ccc(OC(F)F)c(Cl)c1)c1nc(N)c(C(=O)c2ccncc2)s1 (racemic) [Example 203, rac-2-[N-[4-amino-5-(pyridine-4-carbonyl)thiazol-2-yl]-3-chloro-4-(difluoromethoxy)anilino]propanamide]	381
CC(C(N)=O)N(c1ccc2c(c1)OCO2)c1nc(N)c(C(=O)c2ccccc2)s1 (racemic) [Example 196, rac-2-[(4-amino-5-benzoyl-thiazol-2-yl)-(1,3-benzodioxol-5-yl)amino]propanamide]	128
CC(Oc1ccc(C(=O)c2sc(N(c3ccccc3)C(C)C(N)=O)nc2N)cc1)C(N)=O (single isomer, unassigned) [Example 45.4, 2-(N-[4-amino-5-[4-[2-amino-1-methyl-2-oxo-ethoxy]benzoyl]thiazol-2-yl]anilino)propanamide]	> 20000
CC(C(N)=O)N(c1cnn(C)c1)c1nc(N)c(C(=O)c2ccccc2)s1 (single isomer, unassigned) [Example 78.2, 2-[(4-amino-5-benzoyl-thiazol-2-yl)-(1-methylpyrazol-4-yl)amino]propanamide]	7550
CC(C(N)=O)N(c1ccc(Cl)c(F)c1)c1nc(N)c(C(=O)c2ccc(C(=O)NCCOC(F)F)cc2)s1 (racemic) [Example 270, rac-4-[4-amino-2-(N-(2-amino-1-methyl-2-oxo-ethyl)-4-chloro-3-fluoro-anilino)thiazole-5-carbonyl]-N-2-(difluoromethoxy)ethyl]benzamide]	13
CC(C(N)=O)N(c1ccc(OC(F)(F)F)c(F)c1)c1nc(N)c(C(=O)c2ccncc2)s1 (racemic) [Example 220, rac-2-[N-[4-amino-5-(pyridine-4-carbonyl)thiazol-2-yl]-3-fluoro-4-(trifluoromethoxy)anilino]propanamide]	219
CC(C(N)=O)N(c1nc(N)c(C(=O)c2ccc(OC(F)F)cc2)s1)c1ccc(Cl)cc1F (single isomer, unassigned) [Example 46.2, 2-(N-[4-amino-5-[4-(difluoromethoxy)benzoyl]thiazol-2-yl]-4-chloro-2-fluoro-anilino)propanamide]	5.69
CC(C(N)=O)N(c1ccc(OC(F)F)c(Cl)c1)c1nc(N)c(C(=O)c2ccccc2)s1 (racemic) [Example 194, rac-2-[N-(4-amino-5-benzoyl-thiazol-2-yl)-3-chloro-4-(difluoromethoxy)anilino]propanamide]	66
CCOc1ccc(N(c2nc(N)c(C(=O)c3ccccc3)s2)C(C)C(N)=O)cc1 (racemic) [Example 195, rac-2-(N-(4-amino-5-benzoyl-thiazol-2-yl)-4-ethoxy-anilino)propanamide]	1000

Continued, values first:

IC50 [nM]	Structure (SMILES)
187	C#CCN(C)C(=O)COc1ccc(C(=O)c2sc(N(c3ccc(F)cc3)C(C)C(N)=O)nc2N)cc1 (racemic) [Example 93, rac-2-(N-[4-amino-5-[4-[2-[methyl(prop-2-ynyl)amino]-2-oxo-ethoxy]benzoyl]thiazol-2-yl]-4-fluoro-anilino)propanamide]
581	CC(C(N)=O)N(c1ccc(F)cc1)c1nc(N)c(C(=O)c2ccc(OCC(=O)NCC(O)CO)cc2)s1 (racemic) [Example 116, 2-(N-[4-amino-5-(4-[2-(2,3-dihydroxypropylamino)-2-oxo-ethoxy]benzoyl]thiazol-2-yl]-4-fluoro-anilino)propanamide]
130	COc1ccc(C(=O)c2sc(N(c3ccc(F)cc3)C(C)C(N)=O)nc2N)c(F)c1 (racemic) [Example 23, rac-2-(N-[4-amino-5-(2-fluoro-4-methoxy-benzoyl)thiazol-2-yl]-4-fluoro-anilino)propanamide]
59	CC(C(N)=O)N(c1ccc(OC(F)F)nc1)c1nc(N)c(C(=O)c2ccc(Cl)cc2)s1 (racemic) [Example 253, rac-2-[[4-amino-5-(4-chlorobenzoyl)thiazol-2-yl]-[6-(difluoromethoxy)-3-pyridyl]amino]propanamide]
207	COc1ccc(N(c2nc(N)c(C(=O)c3ccc(F)cc3)s2)C(C)C(N)=O)cc1 (racemic) [Example 18, rac-2-(N-[4-amino-5-(4-fluorobenzoyl)thiazol-2-yl]-4-methoxy-anilino)propanamide]
12	CC(C(N)=O)N(c1ccc(F)cc1)c1nc(N)c(C(=O)c2ccc(OC(F)F)nc2)s1 (single isomer, unassigned) [Example 162.1, 2-(N-[4-amino-5-[6-(difluoromethoxy)pyridine-3-carbonyl]thiazol-2-yl]-4-fluoro-anilino)propanamide]
36	CC(C(N)=O)N(c1ccc(F)cc1)c1nc(N)c(C(=O)c2ccc(N3CCCCC3)nc2)s1 (racemic) [Example 283, rac-2-(N-[4-amino-5-[6-(1-piperidyl)pyridine-3-carbonyl]thiazol-2-yl]-4-fluoro-anilino)propanamide]
200	CC(C(N)=O)N(c1ccc(F)cc1)c1nc(N)c(C(=O)c2ccc(OC(C)(C)C(N)=O)cc2)s1 (racemic) [Example 155, rac-2-[4-[4-amino-2-(N-(2-amino-1-methyl-2-oxo-ethyl)-4-fluoro-anilino)thiazole-5-carbonyl]phenoxy]-2-methyl-propanamide]
334	COc1ccc(C(=O)c2sc(N(c3ccc(F)cc3)C(C)C(N)=O)nc2N)cn1 (racemic) [Example 14, rac-2-(N-[4-amino-5-(6-methoxypyridine-3-carbonyl)thiazol-2-yl]-4-fluoro-anilino)propanamide]
131	CC(C(N)=O)N(c1ccc(F)cc1)c1nc(N)c(C(=O)c2ccc(OCC(=O)NCCN3CCCCC3)cc2)s1 (racemic) [Example 89, rac-2-(N-[4-amino-5-[4-[2-oxo-2-[2-(1-piperidyl)ethylamino]ethoxy]benzoyl]thiazol-2-yl]-4-fluoro-anilino)propanamide]
4	COc1ccc(C(=O)c2sc(N(c3ccc(Cl)c(F)c3)[C@H](C)C(N)=O)nc2N)cc1 [Example 59.1, (R)-2-(N-[4-amino-5-(4-methoxybenzoyl)thiazol-2-yl]-4-chloro-3-fluoro-anilino)propanamide]
82.1	Cc1ccc(N(c2nc(N)c(C(=O)c3ccccc3)s2)C(C)C(N)=O)cc1 (single isomer, unassigned) [Example 73.2, 2-(N-(4-amino-5-benzoyl-thiazol-2-yl)-4-methyl-anilino)propanamide]
142	CC(C(N)=O)N(c1ccc(F)cc1)c1nc(N)c(C(=O)c2ccc(C#N)c(F)c2)s1 (racemic) [Example 21, rac-2-(N-[4-amino-5-(4-cyano-3-fluoro-benzoyl)thiazol-2-yl]-4-fluoro-anilino)propanamide]

Source: US11964953B2, “Substituted aminothiazoles as DGKzeta inhibitors for immune activation” (Bayer Aktiengesellschaft, priority 2020, dated 2024)
